Assay results as given in PubChem BioAssay (NCI).
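Test compounds were applied to cells in 96-well plates for 48 hours at 5 doses. GI50 marks 50% less growth. At the TGI there is no net growth.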 Where a SMILES comes first, the peptide text is derived from it. The star is where a group is joined. Boc = CC(C)(C)OC(=O)*

Experiments:
Assay in all cases: NCI tumour cell line growth inhibition, 48 h
UACC-62 melanoma = system: UACC-62 melanoma
HL-60(TB) leukemia = system: HL-60(TB) leukemia
SK-MEL-5 melanoma = system: SK-MEL-5 melanoma
SF-268 CNS = system: SF-268 CNS
MALME-3M melanoma = system: MALME-3M melanoma
MOLT-4 leukemia = system: MOLT-4 leukemia
HOP-62 NSCLC = system: HOP-62 NSCLC
SN12C renal = system: SN12C renal
HCC-2998 colon = system: HCC-2998 colon
SK-MEL-28 melanoma = system: SK-MEL-28 melanoma
OVCAR-3 ovarian = system: OVCAR-3 ovarian
NCI-H522 lung = system: NCI-H522 lung
K-562 leukemia = system: K-562 leukemia
CCRF-CEM leukemia = system: CCRF-CEM leukemia
RPMI-8226 leukemia = system: RPMI-8226 leukemia
MDA-MB-231 breast = system: MDA-MB-231 breast
MDA-MB-435 = system: MDA-MB-435
HS 578T breast = system: HS 578T breast

Row | SMILES | TGI (UACC-62 melanoma) [µM] | TGI (HL-60(TB) leukemia) [µM] | TGI (SK-MEL-5 melanoma) [µM] | TGI (SF-268 CNS) [µM] | TGI (MALME-3M melanoma) [µM] | TGI (MOLT-4 leukemia) [µM] | TGI (HOP-62 NSCLC) [µM] | TGI (SN12C renal) [µM] | TGI (HCC-2998 colon) [µM] | TGI (SK-MEL-28 melanoma) [µM] | TGI (OVCAR-3 ovarian) [µM] | TGI (NCI-H522 lung) [µM] | TGI (K-562 leukemia) [µM] | TGI (CCRF-CEM leukemia) [µM] | TGI (RPMI-8226 leukemia) [µM] | TGI (MDA-MB-231 breast) [µM] | TGI (MDA-MB-435) [µM] | TGI (HS 578T breast) [µM] | GI50 (SF-268 CNS) [µM] | GI50 (OVCAR-3 ovarian) [µM]
1 | COc1ccc2c(c1)c(=O)c1ccccc1n2/C=C/C(=O)O | > 100 | > 66.6 | > 100 | > 100 | > 100 | > 100 | > 100 | > 100 | > 100 | > 100 | > 100 | > 100 | > 100 | > 67.8 | > 100 | – | – | – | – | –
2 | Cc1ccc2c(c1)C(=O)/C(=C\c1ccccc1)CCS2(=O)=O | 31.9 | – | 29.4 | > 68.7 | 36.5 | 87.5 | > 86 | 53.3 | 28.6 | > 66.4 | 39.9 | 14.6 | 5.52 | – | – | 35.5 | > 61.4 | > 85.1 | – | –
3 | COc1c(C)c(C/C=C(\C)CCCCO[Si](C(C)C)(C(C)C)C(C)C)c(OC)c2ccccc12 | > 100 | – | > 100 | > 100 | – | > 100 | > 100 | > 100 | – | – | > 100 | > 100 | > 100 | 89.3 | – | > 100 | > 100 | > 100 | – | –
4 | COc1c(Cl)c2c(c(OC)c1OC)-c1ccc(OC)c(=O)c(Cl)c1C(NC(C)=O)CC2 (configuration not stated) | 44.6 | 2.77 | – | 3.57 | > 100 | > 100 | > 27.2 | > 36.4 | 0.453 | > 100 | 0.378 | 0.468 | > 100 | > 33.8 | 10.3 | – | – | – | – | –
5 | OC12c3ccccc3C1(N1CCOCC1)CCCCC21OCCCO1 (configuration not stated) | > 100 | > 100 | > 100 | > 100 | > 100 | > 100 | > 100 | > 100 | – | > 100 | > 100 | > 100 | > 100 | > 100 | > 100 | – | – | – | – | –
6 | CC(NC(=O)C(NC(=O)OC(C)(C)C)C(C)C)C(=O)N1CCCC1C(=O)NCC(=O)NC(C(=O)NCC(=O)O)C(C)C (configuration not stated) (Boc-VAPGVG-OH; configuration not given here) | > 100 | > 100 | – | > 100 | > 100 | > 100 | > 100 | > 100 | > 100 | > 100 | > 100 | > 100 | > 100 | > 100 | > 100 | > 100 | > 100 | – | – | –
7 | COc1ccc2cc(C(C)C(O)c3cc(F)c(F)c(F)c3F)ccc2c1 (configuration not stated) | > 100 | > 100 | > 100 | > 100 | > 100 | – | > 100 | > 100 | > 100 | > 100 | > 100 | – | > 100 | > 100 | > 100 | > 100 | > 100 | – | – | –
8 | CC1CN=C(Nc2ccc(F)cc2F)S1 (configuration not stated) | – | > 100 | > 100 | > 100 | > 100 | > 100 | > 100 | > 100 | > 100 | > 100 | > 100 | – | > 100 | > 100 | > 100 | > 100 | – | > 100 | – | –
9 | C/C=C/c1c(O)c(=O)c2c(OC)cc(OC)c3c4c(OC)cc(OC)c5c(=O)c(O)c(/C=C/C)c(c1c23)c54 | 30.6 | – | 24.3 | 24.6 | 19.6 | > 100 | 54.5 | 41.8 | > 100 | 36.6 | 15.5 | 16.9 | > 100 | > 100 | > 100 | 34.9 | 26.1 | – | – | –
10 | CC(=O)C1C(=O)C(=O)N(c2cccc(C)c2C)C1=O (configuration not stated) | > 100 | > 100 | > 100 | – | – | > 100 | > 100 | > 100 | – | – | > 100 | – | – | – | – | > 100 | – | – | – | –
11 | CC(C)CNC(=O)CCc1cccc2c1oc1c(CCN)cccc12 | 32 | 13.3 | 27.2 | 31.2 | 32 | 30.7 | 33.7 | 32.2 | 29.3 | 23.8 | 17.2 | 29.6 | 14.2 | 17.6 | – | 31.6 | 25.2 | – | – | –
12 | C/C=C(C)/C=C/CC(C)CCC=C(C)C (configuration not stated) | > 100 | > 100 | > 100 | – | – | > 100 | – | > 100 | – | > 100 | > 100 | – | > 100 | > 100 | – | > 100 | > 100 | – | – | –
13 | CCOC(=O)Cc1nnc2c(-c3ccccc3)nc3ccccc3n12 | > 100 | > 100 | > 100 | 39.7 | > 100 | > 100 | 27.6 | > 100 | 64.8 | > 100 | 51.9 | – | > 100 | > 100 | > 100 | 45.3 | > 100 | – | – | –
14 | C=CCCC(OCOCCOC)c1cc(C)c(O[Si](C)(C)C(C)(C)C)c(C)c1 (configuration not stated) | 38.1 | 19.5 | 24.3 | 34.1 | 41.4 | 19.4 | 35.2 | 32.2 | 27.5 | 64.7 | 27.7 | 25.4 | 26.2 | 30.6 | 23.4 | – | – | – | – | –
15 | COc1cccc(-c2cc(=O)c3cc(OC)c(OC)cc3[nH]2)c1 | > 100 | > 100 | – | > 100 | > 100 | > 100 | > 100 | > 100 | > 100 | > 100 | > 100 | 42.4 | > 100 | > 100 | > 100 | – | – | – | 49.6 | 33.5
16 | CC(C)/C(Cl)=N\OC(=O)Nc1cccc(F)c1 | 45.3 | 4.05 | 28.4 | 58 | 14.4 | 6.29 | > 31.6 | 32.2 | 36.9 | 31.9 | 32.4 | 2.98 | 4.8 | 5.07 | 15.3 | 31.4 | – | 63.2 | – | –
